Values of other authors as cited in patent US20250195486A1 (Closed Loop Medicine Ltd., priority 2023, published 2025).
“Also recorded” adds a separate entry of the source. Where two headings read alike, the source gives them in different places.

Experiments:
[1] = target: P-gp (Homo sapiens, UniProt P08183)
[2] = Salazar et al. (2012)
[3] = population mean; Song et al. (2014), Phases I and II
[4] = Yin et al. (2014)
[5] = Niebecker et al. (2015)
[6] = system: patients with NVAF; details: patient with normal renal function
[7] = system: patients with NVAF; details: 12 weeks
[8] = not given; remark: listed apart in the source
[9] = system: patients with AF; details: atrial fibrillation
[10] = population mean, Phases I and II
[11] = population mean, Phases I, II and III
[12] = population mean, Phases I and III
[13] = normally distributed, mean 0, Krekels et al. (2016) model
[14] = population mean, Krekels et al. (2016), Phases I and III

Sequence of P-gp (P08183 whole entry): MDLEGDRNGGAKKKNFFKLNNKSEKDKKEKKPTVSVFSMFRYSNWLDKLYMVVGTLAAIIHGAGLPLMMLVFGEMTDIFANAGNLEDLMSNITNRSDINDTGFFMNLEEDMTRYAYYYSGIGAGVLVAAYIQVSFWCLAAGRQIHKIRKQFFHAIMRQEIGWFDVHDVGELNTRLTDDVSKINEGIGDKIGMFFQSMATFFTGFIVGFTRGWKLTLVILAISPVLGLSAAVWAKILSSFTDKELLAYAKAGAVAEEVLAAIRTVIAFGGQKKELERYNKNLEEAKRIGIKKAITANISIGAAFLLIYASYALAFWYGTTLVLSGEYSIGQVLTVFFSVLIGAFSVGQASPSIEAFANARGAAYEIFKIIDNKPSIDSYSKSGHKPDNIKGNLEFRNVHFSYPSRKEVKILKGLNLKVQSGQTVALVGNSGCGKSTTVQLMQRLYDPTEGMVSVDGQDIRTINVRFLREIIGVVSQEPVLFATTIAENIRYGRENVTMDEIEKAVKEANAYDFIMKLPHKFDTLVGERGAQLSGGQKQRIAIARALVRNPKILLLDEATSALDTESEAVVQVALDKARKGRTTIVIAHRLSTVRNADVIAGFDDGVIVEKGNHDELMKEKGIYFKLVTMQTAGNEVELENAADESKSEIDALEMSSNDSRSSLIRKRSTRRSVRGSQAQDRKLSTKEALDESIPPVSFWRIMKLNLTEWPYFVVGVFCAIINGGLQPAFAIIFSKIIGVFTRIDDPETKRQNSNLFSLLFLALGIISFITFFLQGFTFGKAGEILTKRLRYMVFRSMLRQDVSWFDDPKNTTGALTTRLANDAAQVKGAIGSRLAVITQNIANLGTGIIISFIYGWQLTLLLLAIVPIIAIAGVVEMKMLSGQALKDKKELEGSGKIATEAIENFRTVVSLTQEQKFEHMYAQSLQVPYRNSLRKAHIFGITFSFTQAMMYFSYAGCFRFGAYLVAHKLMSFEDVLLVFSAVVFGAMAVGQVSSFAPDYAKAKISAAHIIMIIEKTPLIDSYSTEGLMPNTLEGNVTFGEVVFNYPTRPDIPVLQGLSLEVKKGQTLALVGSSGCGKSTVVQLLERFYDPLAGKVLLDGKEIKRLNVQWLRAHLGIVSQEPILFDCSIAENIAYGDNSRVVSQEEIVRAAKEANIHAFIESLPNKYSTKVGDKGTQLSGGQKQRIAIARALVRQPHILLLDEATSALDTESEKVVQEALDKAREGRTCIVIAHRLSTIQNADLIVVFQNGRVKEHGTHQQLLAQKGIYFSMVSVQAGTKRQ

For `CN1CCc2nc(C(=O)N[C@@H]3C[C@@H](C(=O)N(C)C)CC[C@@H]3NC(=O)C(=O)Nc3ccc(Cl)cn3)sc2C1` [edoxaban], the “Metabolism (extent)” value (by CES1, CYP3A4 and glucuronidation) is given as less than 30%, the “time of peak plasma concentrations” value (following oral administration) is given as 1 to 2 h and the “time of peak levels” value (immediate-release doses, taken without food) is given as 1 to 2 h. The “time of peak levels with food” value (immediate-release doses, with food vs without food) was “an hour later”, the “Renal clearance as share of total body clearance” value (in vivo) was roughly 50% and the “accumulation upon repeat dosing” value (in vivo) was “minimal accumulation”. For the same compound, the “effect of food on rate of absorption” value (in vivo) was “decreases the rate of absorption”, the “effect of food on total exposure” value (in vivo) was “does not affect” and the “increase of total systemic exposure (AUC∞)” value (moderate or severe renal impairment vs normal renal function) was “almost two-fold”. The bioavailability (oral) was “approximately 62%”, the terminal half-life (oral administration) was 10 to 14 h and the “dose linearity of pharmacokinetics” value (over the therapeutic range of doses) was “linear”. For the same compound, the “unchanged drug found in the faeces” value (partly due to biliary elimination) was 30-50%, the P-gp substrate status [1] was “substrate of P-gp” and the “Significant covariates: Body weight (PK parameters influenced)” value (from here on “Significant covariates: Body weight”) [2] was “Vc/F”. The “Significant covariates: CRCL (PK parameters influenced)” value (from here on “Significant covariates: CRCL”) [2] was “CL/F”, the “Significant covariates: Food (PK parameters influenced)” value [2] was “Ka” and the “Significant covariates: P-gp inhibition (PK parameters influenced)” value (shortened to “Significant covariates: P-gp inhibition”) [2] was “CL/F, Ka, F”. The “Significant covariates: Patient status (PK parameters influenced)” value [2] was “Vc/F”, the CL/F [2, 10] was 36 L/h and the F [2, 10] was 1. The Ka [2, 10] was 5.87 h⁻¹, the Lag time [2, 10] was 0.42 h and the Q/F [2, 10] was 6.42 L/h. For the same compound, the Vc/F [2, 10] was 244 L, the Vp/F [2, 10] was 90.3 L and the CL/F [3] was 32.1 L/h. For the same compound, the Ka [3] was 3.54 h⁻¹, the Lag time [3] was 0.39 h and the Q/F [3] was 8.85 L/h. For the same compound, the Vc/F [3] was 214 L, the Vp/F [3] was 134 L and the “Significant covariates: Age (PK parameters influenced)” value [4] was “CL/F, Ka”. For the same compound, the “Significant covariates: Body weight” value [4] was “CL/F, Vc/F”, the “Significant covariates: CRCL” value [4] was “CL/F” and the “Significant covariates: P-gp inhibition” value [4] was “Vc/F, Ka, F”. The CL/F [4, 11] was 11.4 L/h, the F [4, 11] was 0.58 and the Ka [4, 11] was 1.08 h⁻¹. The Lag time [4, 11] was 0.25 h, the Q/F [4, 11] was 2.73 L/h and the Vc/F [4, 11] was 151 L. For the same compound, the Vp/F [4, 11] was 42.9 L, the “Significant covariates: Body weight” value [5] was “CLNR/F, Q/F,; also recorded: Vc/F, Vp/F” and the “Significant covariates: CRCL” value [5] was “CL/F”. For the same compound, the “Significant covariates: P-gp inhibition” value [5] was “CL/F, F”, the “Significant covariates: Race (PK parameters influenced)” value [5] was “Vc/F” and the “CL/F (CLNR/F)” value ([5]; non-renal clearance, population mean, Phases I and III) was 15.5 L/h. The Ka [5, 12] was 3.35 h⁻¹, the Lag time [5, 12] was 0.25 h and the Q/F [5, 12] was 5.92 L/h. For the same compound, the Vc/F [5, 12] was 209 L, the Vp/F [5, 12] was 92.3 L and the “trough edoxaban level required to reduce the risk of a major bleeding event below 2%” value [6] was less than 30 ng/mL. The “trough edoxaban level required to reduce the risk of a major bleeding event below […]” value [6] was less than 40 ng/mL, the “risk of bleeding, 30 mg twice-daily vs 60 mg once-daily” value [7] was “greater” and the “Significant covariates: CRCL” value ([8]; Krekels et al. (2016)) was “CL/F”. For the same compound, the “CL/F (CLNR/F)” value ([8]; non-renal clearance, population mean, Krekels et al. (2016), Phases I and III) was 13.8 L/h, the “variance of ηCL/F (between-subject variability)” value [8, 13] was 0.0185 and the “variance of ηQ/F (between-subject variability)” value [8, 13] was 0.2285. The “variance of ηVc/F (between-subject variability)” value [8, 13] was 0.04623, the “variance of ηVp/F (between-subject variability)” value [8, 13] was 0.2285 and the Ka [8, 14] was 2.16 h⁻¹. For the same compound, the Lag time [8, 14] was 0.25 h, the Q/F [8, 14] was 5.75 L/h and the Vc/F [8, 14] was 194 L. For the same compound, the Vp/F [8, 14] was 88.6 L.

For `CC(=O)CC(c1ccccc1)c1c(O)c2ccccc2oc1=O` (centres unmarked) [warfarin], the reduction of stroke [9] is listed as “about 60%”.
